# Source: patent US8980823B2, “Formulations of Factor VIIa inhibitors and utility” (priority 2012, dated 2015)
# “Also recorded” adds a separate entry of the source.
# Test system: Laser-induced CNV
# Test: Laser-induced Choroidal Neovascularization (CNV) model
# Assay type: in vivo, brown Norway rats
# Conditions: single i-v injection on D0, evaluated D10; r-TFPI 0.2 ug; VIIa-i (Compound A-NO NP) 5.08 ug
# Protocol: For Choroidal Neovascularization (CNV) induction in rats, brown Norway rats were anesthetized and pupils dilated. Argon red laser photocoagulation (50-um spot size, 0.05 sec duration) was used to generate 4 laser spots for each eye surrounding the optic nerve. A bubble forms at the laser spot indicating rupture of Bruch's membrane. The laser spots were evaluated for the presence of CNV on day 10 after laser treatment using confocal microscopy. Administration of test compounds: Immediately after CNV induction, test compounds were given once by intravitreal injection, i-v (VIIa-i versus r-TFPI). For characterization of efficacy in preventing laser-induced CNV in the eyes of rats, the incidence of CNV-positive or CNV-negative spots was determined by confocal microscopy. Rats were perfused with a FITC-dextran solution just prior to sacrifice. After the eyes were excised and choroidal flat mounts prepared, the mounts were stained with a mAb against mouse or rat elastin and then with CY3-conjugated secondary antibody. The prominent neovascular growth stains green whereas the underlying elastin in the Bruch's membrane stains red within the laser spot. The inhibition of new vessel growth is indicated by the absence of vessels with a green stain, and the size of the CNV is measured using Image Pro plus Software. […] Animals were sacrificed on D10, and CNV evaluated as described in methods.
substance,measurement,value
r-TFPI: recombinant tissue factor pathway inhibitor,inhibition of laser-induced CNV,highly effective in inhibiting laser-induced CNV; also recorded: significant reduction in neovascular growth
